Assay results published in US12195479B2, “Five- and six-membered compound, and preparation method therefor and pharmaceutical composition and use thereof” (HANGZHOU POLYMED BIOPHARMACEUTICALS, INC., priority 2021, dated 2025).

Experiments:
[1] = molecular target: T1, FLT3 kinase (Homo sapiens, UniProt P36888); test: Kinase inhibition, fluorescence microfluidic mobility shift assay (FLT3); format: biochemical; settings: substrate peptide FAM-P2 3 μM, ATP 97 μM; one hour at 28° C.; assayed in duplicate
T1 sequence (P36888 564-993): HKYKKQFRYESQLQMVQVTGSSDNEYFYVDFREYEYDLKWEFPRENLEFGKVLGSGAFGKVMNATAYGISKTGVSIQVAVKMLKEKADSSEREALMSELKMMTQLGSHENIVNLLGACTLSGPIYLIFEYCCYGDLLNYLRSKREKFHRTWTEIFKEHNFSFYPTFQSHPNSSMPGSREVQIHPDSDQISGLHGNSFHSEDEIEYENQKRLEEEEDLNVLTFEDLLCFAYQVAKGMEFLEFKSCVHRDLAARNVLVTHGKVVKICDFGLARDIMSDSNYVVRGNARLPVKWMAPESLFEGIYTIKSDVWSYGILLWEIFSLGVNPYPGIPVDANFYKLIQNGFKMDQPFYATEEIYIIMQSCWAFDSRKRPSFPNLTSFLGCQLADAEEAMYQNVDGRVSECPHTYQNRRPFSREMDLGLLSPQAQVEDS
Description: Based on the experimental method of fluorescence microfluidic mobility shift assay, the IC50 value of the compound for competitive binding of ATP to kinases IRAK4 and FLT3 was determined. The initial detection concentration of the compound was 10 μM, which was diluted to 0.38 nM with a 4-fold gradient and assayed in duplicate. In this case, commercially available staurosporine was the standard control for the assay.
Information on reagents and consumables is as follows: • IRAK4 kinase (Carna, Cat. No. 09-145, Lot. No. 14CBS-0020 H) • FLT3 kinase (Carna, Cat. No. 08-154, Lot. No. 07CBS-2350) • Substrate peptide FAM-P2 (GL Biochem, Cat. No. 112394, Lot. No. P131014-XP112394) • Substrate peptide FAM-P8 (GL Biochem, Cat. No. 112396, Lot. No. P170731-SY112396) • ATP (adenosine triphosphate, Sigma, Cat. No. A7699-1G, CAS No. 987-65-5) • DMSO (dimethyl sulfoxide, Sigma, Cat. No. D2650) • EDTA (ethylenediaminetetraacetic acid, Sigma, Cat. No. E5134, CAS No. 60-00-4) • Staurosporine (Selleckchem, Cat. No. 51421) • HEPES (4-(2-Hydroxyethyl)-1-piperazineethanesulfonic acid, Gibco, Cat. No. 15630-080) • Brij-35 solution (Polyoxyethylene lauryl ether, Sigma, Cat. No. B41840-100 mL) • DTT (dithiothreitol, Sigma, Cat. No. D0632-20G) • 0.2% Coating Reagent #3 (0.2% coating reagent, Perkin Elmer, Cat. No. 760050) • 96-well plate (Corning, Cat. No. 3365) • 384-well plate (Corning, Cat. No. 3573) Experimental operation method: • 1) FLT3 and IRAK4 kinases were dissolved in the kinase buffer (50 mM HEPES pH 7.5, 10 mM MgCl2, 2 mM DTT, and 0.01% Brij-35) at final concentrations of 0.9 nM, 30 nM, and 6 nM, respectively. • 2) The substrate peptide FAM-P2 and the substrate peptide FAM-P8, together with ATP, were dissolved in the above kinase buffer, respectively, where the final concentrations of the substrate peptide FAM-P2 and ATP for the determination of FLT3 were 3 μM and 97 μM, respectively; and the final concentrations of the substrate peptide FAM-P8 and ATP for the determination of IRAK4 were 3 μM and 10 μM, respectively. • 3) Compound dilution: The compound was first diluted to 50 μM, and then diluted downward with DMSO in a 4-fold gradient. In this case, the solution without compound and kinase served as the blank control, corresponding to the “minimum value” shown below; the solution without compound but containing kinase, adenosine triphosphate, DMSO, and the buffer served as the positive control, corresponding to the “maximum value” shown below. • 4) Kinase reaction and termination: 10 μL of the kinase buffer was added to a 384-well plate containing 5 μL of the compound to be tested, and the mixture was incubated for 10 minutes at room temperature; another 10 μL, of buffer containing the substrate peptide and adenosine triphosphate was added to the 384-well plate, and after incubation for one hour at 28° C., 25 μL, of termination solution (100 mM HEPES pH 7.5, 50 mM EDTA, 0.2% Coating Reagent #3, and 0.015% Brij-35) was added to each well for reaction termination. • 5) Data reading: CaliperEZ Reader II instrument was used to read the conversion rate data. Setting conditions: downstream voltage as −500 V, upstream voltage as −2250 V, base pressure as −0.5 PSI, and screening pressure as −1.2 PSI. • 6) Data calculation: the conversion rate data was copied from CaliperEZ Reader II, and the conversion rate was converted into inhibition rate data.

[2] = molecular target: T2, IRAK4 kinase (Homo sapiens, UniProt Q9NWZ3); test: Kinase inhibition, fluorescence microfluidic mobility shift assay (IRAK4); format: biochemical; settings: substrate peptide FAM-P8 3 μM, ATP 10 μM; one hour at 28° C.; assayed in duplicate
T2 sequence (Q9NWZ3 1-460): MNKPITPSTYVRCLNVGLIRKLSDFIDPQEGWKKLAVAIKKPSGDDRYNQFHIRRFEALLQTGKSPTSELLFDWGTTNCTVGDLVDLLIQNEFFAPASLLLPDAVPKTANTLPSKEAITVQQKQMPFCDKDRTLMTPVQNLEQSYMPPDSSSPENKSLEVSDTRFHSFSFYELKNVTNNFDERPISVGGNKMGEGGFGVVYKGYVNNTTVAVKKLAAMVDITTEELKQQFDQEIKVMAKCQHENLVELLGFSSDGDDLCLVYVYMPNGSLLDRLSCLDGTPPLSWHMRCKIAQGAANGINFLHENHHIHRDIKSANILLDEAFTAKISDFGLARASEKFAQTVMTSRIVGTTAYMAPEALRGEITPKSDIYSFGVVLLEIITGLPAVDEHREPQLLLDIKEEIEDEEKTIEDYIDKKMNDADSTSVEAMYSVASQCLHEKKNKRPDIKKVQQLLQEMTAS

[3] = system: MV4-11 cells; test: Cytotoxicity against MV4-11 cells (CellTiter-Glo); format: cell-based; settings: Homo sapiens, incubated for 72 hours, CellTiter-Glo chemiluminescence
Description: Determination of the IC50 Value of the Compound's Cytotoxicity Against MV4-11 Cells
MV-4-11 cells were cultured with IMDM complete medium (IMDM+10% fetal bovine serum+1% Penicillin-Streptomycin, a mixture of penicillin-streptomycin). • 2. MV-4-11 cells in good condition were collected and washed twice with DPBS ([…] phosphate buffered saline solution). • 3. MV-4-11 cells were resuspended with IMDM complete medium, the cell density was adjusted to 1.11×10^6 cells/mL, and the MV-4-11 cells were added to 96-well plates at 90 μL per well. • 4. A compound solution with 10-fold concentration was prepared with IMDM complete medium, 10 μL of the compound solution with 10-fold concentration was added to the cells in the 96-well plate, mixed well, and then the 96-well plate was placed in a 5% CO2 incubator at 37° C. and incubated for 72 hours. • 5. After the incubation, the 96-well plate was taken out and equilibrated for 30 minutes at room temperature. Then 100 μL of CellTiter Glo reagent was added to each well and mixed on a horizontal shaker for 2 minutes. • 6. The 96-well plate was removed, equilibrated at room temperature for 10 minutes, and the chemiluminescence value was detected on a microplate reader.

Row | IC50 [1] | IC50 [2] | SMILES | IC50 [3]
1 | 0.63 nM | 4.9 nM | Cc1cc(-c2nc(C(=O)Nc3cc4cn(C5CCN(CC(F)(F)F)CC5)nc4cc3C(C)(C)O)co2)ccn1 [II-59] | 12.5 nM
2 | – | 4.5 nM | Cc1cc(-c2nc(C(=O)Nc3cc4cn(CCC5CCNC5=O)nc4cc3OC3COC3)co2)ccn1 (stereo not shown) [II-64] | 1.3 nM
3 | 15.5 nM | 4.86 nM | CC(C)(O)CCc1cc2cc(NC(=O)c3coc(-c4ccnc(C(F)(F)F)c4)n3)c(C(C)(C)O)cn2n1 [II-92] | 63.2 nM
4 | 2.2 nM | 2.7 nM | CC(C)(O)CCn1cc2cc(NC(=O)c3coc(-c4ccnc(C(F)(F)F)c4)n3)c(C(C)(C)O)cc2n1 [II-93] | 21 nM
5 | 0.44 nM | 8 nM | COc1cc2nn(C3CCNCC3)cc2cc1NC(=O)c1coc(-c2ccnc(C(F)F)c2)n1 [II-94C] | 10.6 nM
6 | 0.47 nM | 12 nM | COc1cc2nn(C3CCS(=N)(=O)CC3)cc2cc1NC(=O)c1coc(-c2ccnc(C)c2)n1 (stereo not shown) [II-95] | 18 nM
7 | 0.22 nM | 3.7 nM | COc1cc2nn(C3CCS(=O)(=O)CC3)cc2cc1NC(=O)c1coc(-c2ccnc(C)c2)n1 [II-96] | 6.5 nM
8 | 0.53 nM | 6.9 nM | Cc1cc(-c2nc(C(=O)Nc3cc4cn(CCN5CCC(F)(F)C5)nc4cc3C(C)(C)O)co2)ccn1 [II-97] | 13.7 nM
9 | 0.44 nM | 5.2 nM | Cc1cc(-c2nc(C(=O)Nc3cc4cn(CCC(C)(C)O)nc4cc3N3CCC(F)(F)C3)co2)ccn1 [II-98] | 0.3 nM
10 | 0.26 nM | 5.5 nM | Cc1cc(-c2nc(C(=O)Nc3cc4cn(C5CCC6(CNC6)C5)nc4cc3C(C)(C)O)co2)ccn1 (stereo not shown) [II-99] | 10.9 nM
11 | 0.85 nM | 21 nM | Cc1cc(-c2nc(C(=O)Nc3cc4cn(CCC(C)(C)O)nc4cc3N3CCC(O)C3)co2)ccn1 (stereo not shown) [II-102] | 8 nM
12 | 0.35 nM | 3.2 nM | Cc1cc(-c2nc(C(=O)Nc3cc4cn(C5CCOC(C)(C)C5)nc4cc3C(C)(C)O)co2)ccn1 (stereo not shown) [II-103] | 3 nM
13 | 2.31 nM | 5.3 nM | CC(C)c1cc(-c2nc(C(=O)Nc3cc4cn(CCC(C)(C)O)nc4cc3C(C)(C)O)co2)ccn1 [II-104] | 21 nM
14 | 39 nM | 2.63 nM | CC(C)(O)CCn1cc2cc(NC(=O)c3ccn(-c4ccnc(C(F)(F)F)c4)n3)c(C(C)(C)O)cc2n1 [II-105] | –
15 | 0.41 nM | 3.3 nM | Cc1cc(-c2nc(C(=O)Nc3cc4cn(C5CCN(C6COC6)CC5)nc4cc3C(C)(C)O)co2)ccn1 [II-106] | 8 nM
16 | 0.73 nM | 9.22 nM | Cc1cc(-c2nc(C(=O)Nc3cc4cn(CC5(F)CN(C(=O)OC(C)(C)C)C5)nc4cc3C(C)(C)O)co2)ccn1 [II-107] | –
17 | 0.36 nM | 8.16 nM | Cc1cc(-c2nc(C(=O)Nc3cc4cn(CCN5CC6CC5CO6)nc4cc3C(C)(C)O)co2)ccn1 (stereo not shown) [II-110] | –
18 | – | 7.54 nM | Cc1cc(-c2nc(C(=O)Nc3cc4cn(C5CC(C)(C)OC(C)(C)C5)nc4cc3C(C)(C)O)co2)ccn1 [II-116] | 27.3 nM
19 | – | 122 nM | Cc1cc(-n2ccc(C(=O)Nc3cc4oc(N5CCOCC5)nc4nc3N3CCC(O)C3)n2)ccn1 (stereo not shown) [II-123] | –
20 | – | 82 nM | Cc1cc(-c2nc(C(=O)Nc3cc4oc(N5CC6CC5CO6)nc4nc3N3CCC(O)C3)co2)ccn1 (stereo not shown) [II-125] | –
21 | 13 nM | 44 nM | Cc1cc(-c2nc(C(=O)Nc3cc4oc(N5CCN(CC(F)(F)F)CC5)nc4nc3N3CCC(O)C3)co2)ccn1 (stereo not shown) [II-128] | –
22 | 8.9 nM | 26 nM | Cc1cc(-c2nc(C(=O)Nc3cc4oc(N5CCC(C(F)(F)F)CC5)nc4nc3N3CCC(O)C3)co2)ccn1 (stereo not shown) [II-130] | –
23 | – | 20 nM | CC(C)(O)CCn1cc2cc(NC(=O)c3coc(-c4ccnc(C(F)(F)F)c4)n3)c(C(C)(C)O)nc2n1 [II-131] | –

More lines, now with the values behind:

Row | SMILES | IC50 [1] | IC50 [2] | IC50 [3]
24 | Cc1cc(-c2nc(C(=O)Nc3cc4cn(CCC5CCNC5=O)nc4cc3C(C)(C)O)co2)ccn1 (stereo not shown) [II-1] | 0.34 nM | 11 nM | 19.4 nM
25 | COc1cc2nn(CCC3CCNC3=O)cc2cc1NC(=O)c1coc(-c2ccnc(C)c2)n1 (stereo not shown) [II-2] | 0.52 nM | 8.4 nM | 14.8 nM
26 | COc1cn2nc(C3CCNCC3)cc2cc1NC(=O)c1coc(-c2ccnc(C)c2)n1 [II-3F] | 2.3 nM | 6 nM | 15 nM
27 | COc1cc2nn(CCC3CCNC3=O)cc2cc1NC(=O)c1coc(Br)n1 (stereo not shown) [II-4] | 12 nM | 72 nM | –
28 | COc1cc2nn(C3CCNCC3)cc2cc1NC(=O)c1nc(-c2ccnc(C)c2)c[nH]1 [II-5C] | 0.19 nM | 3.5 nM | 0.78 nM
29 | COc1cc2nn(C3CCNCC3)cc2cc1NC(=O)c1coc(N2CCN(C(C)=O)CC2)n1 [II-6] | – | 178 nM | –
30 | COc1cc2nn(C3CCNCC3)cc2cc1NC(=O)c1coc(N2CCS(=O)(=O)CC2)n1 [II-7C] | 100 nM | 94 nM | –
31 | COc1cc2nn(CCC3CCNC3=O)cc2cc1NC(=O)c1coc(-c2ccnc(C(F)(F)F)c2)n1 (stereo not shown) [II-8] | 9.5 nM | 25 nM | –
32 | COc1cc2nn(C3CCNCC3)cc2cc1NC(=O)c1coc(-c2ccccc2)n1 [II-9C] | – | 9.4 nM | –
33 | COc1cc2nn(C3CCNCC3)cc2cc1NC(=O)c1coc(-c2ccncc2)n1 [II-10C] | 2.9 nM | 25 nM | 4.3 nM
34 | COc1cc2nn(C3CCNCC3)cc2cc1NC(=O)c1ccn(-c2ccnc(C)c2)n1 [II-11C] | 0.75 nM | 6.9 nM | 4.6 nM
35 | COc1cc2nn(CCS(C)(=N)=O)cc2cc1NC(=O)c1coc(-c2ccnc(C)c2)n1 (stereo not shown) [II-12] | 0.44 nM | 10 nM | 17.9 nM
36 | COc1cc2nn(C3CCNCC3)cc2cc1NC(=O)c1coc(-c2ccnc(C(F)(F)F)c2)n1 [II-13C] | 0.44 nM | 6.4 nM | 14.6 nM
37 | Cc1cc(-c2nc(C(=O)Nc3cc4cn(C5CCNCC5)nc4cc3OC(C)C)co2)ccn1 [II-14C] | 0.72 nM | 7.5 nM | 0.25 nM
38 | COc1cc2nc(C3CCNCC3)cn2cc1NC(=O)c1coc(-c2ccnc(C)c2)n1 [II-15C] | 1.3 nM | 6.5 nM | 8.2 nM
39 | Cc1cc(-c2nc(C(=O)Nc3cc4cc(CCC(C)(C)O)nn4cc3C(C)(C)O)co2)ccn1 [II-28] | 0.79 nM | 16 nM | 3.1 nM
40 | Cc1cc(-c2nc(C(=O)Nc3cc4cn(CCC(C)(C)O)nc4cc3C(C)(C)O)co2)ccn1 [II-49] | 0.32 nM | 5.1 nM | 5 nM
41 | Cc1cc(-c2nc(C(=O)Nc3cc4cn(CCN5CC6(COC6)C5)nc4cc3C(C)(C)O)co2)ccn1 [II-51] | 0.32 nM | 6.5 nM | 16 nM
42 | Cc1cc(-c2nc(C(=O)Nc3cc4cn(C5CCC(O)CC5)nc4cc3C(C)(C)O)co2)ccn1 (stereo not shown) [II-54] | 0.78 nM | 23 nM | 35.3 nM
43 | Cc1cc(-c2nc(C(=O)Nc3cc4cn(C5CCOCC5)nc4cc3C(C)(C)O)co2)ccn1 [II-56] | 0.24 nM | 3.4 nM | 4.6 nM
44 | Cc1cc(-c2nc(C(=O)Nc3cc4cn(C5CCS(=O)(=O)CC5)nc4cc3C(C)(C)O)co2)ccn1 [II-57] | 0.3 nM | 6.5 nM | 13 nM
45 | Cc1cc(-c2nc(C(=O)Nc3cc4cn(C5CC6CCC(C5)N6)nc4cc3C(C)(C)O)co2)ccn1 (stereo not shown) [II-100] | 0.62 nM | 22 nM | 9 nM
46 | Cc1cc(-c2nc(C(=O)Nc3cc4cn(C5CC6CCC(C5)N6C)nc4cc3C(C)(C)O)co2)ccn1 (stereo not shown) [II-101] | 0.48 nM | 22 nM | 7 nM
